Data: ChEMBL document CHEMBL1157539, “Thousands of chemical starting points for antimalarial lead identification” (Nature, 2010)

Tested on: Plasmodium falciparum
Experiment: GSK_TCMDC: Inhibition of Plasmodium falciparum 3D7 in whole erythrocytes, using parasite LDH activity as an index of growth.
Type: functional, organism-based
Conditions: Plasmodium falciparum, 3D7

Cc1nc(N)nc(N)c1-c1ccc2ccccc2c1
XC50: 868 nM

Nc1nc(N)c2c(ccc3c2ccn3Cc2ccc(Cl)cc2)n1
XC50: 3.2 nM

COc1ccccc1CCNc1nc(C)cc(NCCC(=O)Nc2ccccc2)n1
XC50: 806 nM

Cc1ccc(O)cc1Nc1ccnc2cc(-c3ccccc3)ccc12
XC50: 1070 nM

CN(/N=C/c1ccc(Cl)cc1)c1nc(NCCc2ccc(O)cc2)nc(N2CCNCC2)n1
XC50: 1350 nM

O=C(/C=C/c1ccc(Cl)c(Cl)c1)NCCCCCN1CCCN(C(=O)Nc2cc(Cl)cc(Cl)c2)CC1
XC50: 791 nM

O=C(NCCc1ccc(Cl)c(Cl)c1)c1ccc(CNC(=O)c2ccc(O)c(-c3ccc(Cl)c(Cl)c3)c2)cc1
XC50: 812 nM

NC(=O)c1cc2nc(NC3CCC3)nc(Nc3cccc4[nH]ncc34)c2[nH]1
XC50: 732 nM

O=[N+]([O-])c1ccc(N/C(=N\c2ccccc2Br)NCCOc2ccccc2)c(O)c1
XC50: 1050 nM

COc1ccc(CNC(=O)NC2CCN(c3ccnc(Nc4ccc(OC)cc4)n3)C2)cc1 (centres undefined)
XC50: 1000 nM

NC1CCN(Cc2ccc(-c3ccc(-c4nc5ccccc5[nH]4)s3)cc2)C1 (centres undefined)
XC50: 743 nM

CCC(=O)N1CCc2cc(Br)cc(S(=O)(=O)N3CC(C)CC(C)C3)c21 (centres undefined)
XC50: 932 nM

CCC(CC)(Cc1ccccc1)NC(=O)[C@H](Cc1ccc(OC)c(OC)c1)Nc1ccc(C#N)c2ccccc12
XC50: 866 nM

Cc1ccc(Nc2nc(C)cc(NCc3ccc(-n4ccnc4)cc3)n2)cc1
XC50: 1010 nM

N#CCCN1CCN(Cc2cccc(-c3ccc(-c4nc5ccccc5[nH]4)cc3)c2)CC1
XC50: 1020 nM

O=C(Nc1cccc(-c2ccc(-c3nc4cc(F)ccc4[nH]3)cc2)c1)Nc1ccc(F)c(F)c1F
XC50: 113 nM

CCOC(=O)NC1=NC(C)(C)N(OCc2ccc(Cl)c(Cl)c2)C(NC(=O)OCC)=N1
XC50: 278 nM

O=C(NC1CCN(Cc2ccccc2)C1)c1ccc(Nc2ccc(Br)cc2)nc1 (centres undefined)
XC50: 1080 nM

COC(=O)/C=C/C(=O)N[C@@H]1CC[C@@]2(O)[C@H]3Cc4ccc(O)c5c4[C@@]2(CCN3CC2CC2)[C@H]1O5
XC50: 639 nM

CNc1ccc(CNCc2ccc(-c3ccc(-c4nc5cc(C(F)(F)F)ccc5[nH]4)cc3)cc2)cc1
XC50: 167 nM

CCCn1c(Sc2ccc(C#N)c([N+](=O)[O-])c2)nnc1-c1ccc(N(C)C)cc1
XC50: 125 nM

COc1ccc(CNCC2CCC(CNCCc3ccccc3)CC2)cc1Cl (centres undefined)
XC50: 789 nM

CC(C)NCc1ccc(-c2cccc(NC(=O)c3ccc(Cl)cc3)c2)cc1
XC50: 289 nM

CC(C)CNCc1cccc(-c2cccc(CN(CCCN3CCN(C)CC3)C(=O)Nc3ccccc3)c2)c1
XC50: 1150 nM

COc1ccc(CCn2c(=N)c(C(=O)NC3CCCC3)cc3c(=O)n4ccccc4nc32)cc1
XC50: 678 nM

COc1cc2nc(N3CCC(CNC(=O)c4ccc(OC(F)(F)F)cc4)CC3)nc(N)c2cc1OC
XC50: 224 nM

COc1ccc(Cl)c(CC2c3cc(O)c(Cl)cc3CCN2C)c1 (centres undefined)
XC50: 695 nM

O=C(c1ccc(-c2ccccn2)s1)N1CCc2cc3nccc(N4CCN5CCC[C@H]5C4)c3cc21
XC50: 762 nM

Cc1ccc2ncc(Cl)c(CCN3CCC(NCc4ccc5c(n4)NC(=O)CS5)CC3)c2n1
XC50: 1100 nM

CN1CCN(c2ccnc3ccc(NC(=O)Nc4ccc(-c5ccccc5)cc4)cc23)CC1
XC50: 776 nM

COc1ccc(-c2nc(NC(=O)COc3ccc(C(C)=O)cc3)sc2C)cc1
XC50: 713 nM

CN1CC=C(c2csc3ccc(NC(=O)Nc4ccc(-c5ccncc5)c(Cl)c4)cc23)CC1
XC50: 681 nM

Cc1cccc2nc(-c3cccc(-c4cccc(CNCCCN5CCCC5=O)c4)c3)[nH]c12
XC50: 743 nM

CCCC(C)c1cnc2nc(N)nc(N)c2c1C (centres undefined)
XC50: 28.4 nM

CCN(CC)CCCC(C)Nc1ccnc2ccc(OC)cc12 (centres undefined)
XC50: 822 nM

COc1ccc(-c2nonc2NC(=O)c2cccc(C)c2)cc1OC
XC50: 806 nM

CN1CCC(NCc2cccc(-c3ccc(S(=O)(=O)NCc4ccccc4)cc3)c2)CC1
XC50: 687 nM

N#Cc1ccc(-c2ccc(C(=O)NCCCCN3CC=C(c4ccc5c(c4OCC4CC4)CCCC5)CC3)cc2)cc1
XC50: 623 nM

COc1ccc(OCC(O)CN(Cc2ccccc2OC)C(=O)Nc2ccc(Br)cc2)cc1 (centres undefined)
XC50: 748 nM
